In patent publication US8178506B2, “Oligomeric compounds and compositions for use in modulation of small non-coding RNAs” (Regulus Therapeutics Inc., priority 2003, dated 2012):
In the oligonucleotide strings, read from the 5' end, every base follows the letter of its sugar. An asterisk marks phosphorothioate; unmarked linkages are phosphodiester. Other units and linkages are bracketed, terminal groups are in braces. A string of capitals states the bases alone. e = 2'-O-(2-methoxyethyl) (MOE); [5mC] = 5-methylcytosine

Legend:
Type in all cases: cell-based, human
follistatin = assay: Follistatin mRNA expression in HepG2 cells; conditions: for Follistatin mRNA expression: Experiment 2, insulin treated: HepG2 cells transfected with oligomeric compound, 1 nM insulin for four hours, UTC + 1 nM insulin = 100; for Follistatin mRNA: HepG2 cells, Experiment 1, basal (no insulin), four hours, UTC = 100
Glut4 = Glut4 mRNA expression in adipocytes (real-time PCR); conditions: differentiating adipocytes transfected with oligomeric compound; Table 75
aP2 = aP2 mRNA expression in adipocytes (real-time PCR); conditions: differentiating adipocytes transfected with oligomeric compound; Table 75

| Substance | Follistatin mRNA expression (follistatin) | Follistatin mRNA (follistatin) | GLUT4 mRNA (Glut4) | aP2 mRNA (aP2) |
| --- | --- | --- | --- | --- |
| 327963 (antisense eA*eA*e[5mC]*e[5mC]*eT*eA*eT*e[5mC]*e[5mC]*eT*eG*eA*eA*eT*eT*eA*e[5mC]*eT*eT*eG*eA*eA) [compound 327963] | 95 | 101 | 91 percentage of untreated control (UTC) | 75 percentage of untreated control (UTC) |
| 327952 (antisense e[5mC]*eT*eA*e[5mC]*eG*e[5mC]*eG*eT*eA*eT*eT*e[5mC]*eT*eT*eA*eA*eG*e[5mC]*eA*eA*eT*eA) [compound 327952] | 100 | 93 | 61 percentage of untreated control (UTC) | 56 percentage of untreated control (UTC) |
| 327957 (antisense e[5mC]*eA*e[5mC]*eA*eA*eG*eT*eT*e[5mC]*eG*eG*eA*eT*e[5mC]*eT*eA*e[5mC]*eG*eG*eG*eT*eT) [compound 327957] | 73 | 69 | 11 percentage of untreated control (UTC) | 23 percentage of untreated control (UTC) |
| 327940 (antisense eG*eA*eA*e[5mC]*eA*eG*eG*eT*eA*eG*eT*e[5mC]*eT*eG*eA*eA*e[5mC]*eA*e[5mC]*eT*eG*eG*eG) [compound 327940] |  |  | 43 percentage of untreated control (UTC) | 62 percentage of untreated control (UTC) |
| 327964 (antisense e[5mC]*e[5mC]*eA*eA*eG*eT*eT*e[5mC]*eT*eG*eT*e[5mC]*eA*eT*eG*e[5mC]*eA*e[5mC]*eT*eG*eA) [compound 327964] | 114 | 97 | 114 percentage of untreated control (UTC) | 96 percentage of untreated control (UTC) |
| 327873 (antisense e[5mC]*eT*eA*e[5mC]*e[5mC]*eA*eT*eA*eG*eG*eG*eT*eA*eA*eA*eA*e[5mC]*e[5mC]*eA*e[5mC]*eT) [compound 327873] |  | 97 | 106 percentage of untreated control (UTC) | 113 percentage of untreated control (UTC) |
| 327944 (antisense eA*eA*eA*eG*eT*eG*eT*e[5mC]*eA*eG*eA*eT*eA*e[5mC]*eG*eG*eT*eG*eT*eG*eG) [compound 327944] |  |  | 28 percentage of untreated control (UTC) | 71 percentage of untreated control (UTC) |
| 327959 (antisense e[5mC]*eA*eG*e[5mC]*e[5mC]*eG*e[5mC]*eT*eG*eT*e[5mC]*eA*e[5mC]*eA*e[5mC]*eG*e[5mC]*eA*e[5mC]*eA*eG) [compound 327959] | 92 | 98 | 152 percentage of untreated control (UTC) | 24 percentage of untreated control (UTC) |
| 327935 (antisense e[5mC]*eT*eA*e[5mC]*e[5mC]*eT*eG*e[5mC]*eA*e[5mC]*eT*eA*eT*eA*eA*eG*e[5mC]*eA*e[5mC]*eT*eT*eT*eA) [compound 327935] |  |  | 47 percentage of untreated control (UTC) | 60 percentage of untreated control (UTC) |
| 327971 (antisense eG*eG*eA*eA*eA*eT*e[5mC]*e[5mC]*e[5mC]*eT*eG*eG*e[5mC]*eA*eA*eT*eG*eT*eG*eA*eT) [compound 327971] |  |  | 60 percentage of untreated control (UTC) | 49 percentage of untreated control (UTC) |
| 327946 (antisense eA*eG*eG*e[5mC]*eG*eA*eA*eG*eG*eA*eT*eG*eA*e[5mC]*eA*eA*eA*eG*eG*eG*eA*eA) [compound 327946] | 109 | 103 | 68 percentage of untreated control (UTC) | 73 percentage of untreated control (UTC) |
| 327936 (antisense eA*e[5mC]*eA*eG*e[5mC]*eT*eG*eG*eT*eT*eG*eA*eA*eG*eG*eG*eG*eA*e[5mC]*e[5mC]*eA*eA) [compound 327936] |  |  | 6 percentage of untreated control (UTC) | 40 percentage of untreated control (UTC) |
| 327945 (antisense e[5mC]*eT*eG*eT*eT*e[5mC]*e[5mC]*eT*eG*e[5mC]*eT*eG*eA*eA*e[5mC]*eT*eG*eA*eG*e[5mC]*e[5mC]*eA) [compound 327945] |  |  | 26 percentage of untreated control (UTC) | 43 percentage of untreated control (UTC) |
| 327949 (antisense e[5mC]*eA*e[5mC]*eA*eA*eA*eT*eT*e[5mC]*eG*eG*eA*eT*e[5mC]*eT*eA*e[5mC]*eA*eG*eG*eG*eT*eA) [compound 327949] | 111 | 112 | 20 percentage of untreated control (UTC) | 52 percentage of untreated control (UTC) |
| 327950 (antisense eT*e[5mC]*eA*eG*eT*eT*eT*eT*eG*e[5mC]*eA*eT*eA*eG*eA*eT*eT*eT*eG*e[5mC]*eA*e[5mC]*eA) [compound 327950] | 89 | 83 | 104 percentage of untreated control (UTC) | 95 percentage of untreated control (UTC) |
| 327961 (antisense eG*eG*eG*eG*eT*eA*eT*eT*eT*eG*eA*e[5mC]*eA*eA*eA*e[5mC]*eT*eG*eA*e[5mC]*eA) [compound 327961] | 128 | 113 | 101 percentage of untreated control (UTC) | 91 percentage of untreated control (UTC) |
| 327965 (antisense eA*eT*e[5mC]*eA*e[5mC]*eA*eT*eA*eG*eG*eA*eA*eT*eA*eA*eA*eA*eA*eG*e[5mC]*e[5mC]*eA*eT*eA) [compound 327965] | 79 | 95 | 88 percentage of untreated control (UTC) | 67 percentage of untreated control (UTC) |
| 327958 (antisense e[5mC]*e[5mC]*eG*eG*e[5mC]*eT*eG*e[5mC]*eA*eA*e[5mC]*eA*e[5mC]*eA*eA*eG*eA*e[5mC]*eA*e[5mC]*eG*eA) [compound 327958] | 112 | 91 | 5 percentage of untreated control (UTC) | 10 percentage of untreated control (UTC) |
